Drawing on patent US9221792B2, “N-(4-(azetidine-1-carbonyl) phenyl)-(hetero-) arylsulfonamide derivatives as pyruvate kinase M2 (PMK2) modulators” (AGIOS PHARMACEUTICALS, INC, priority 2010, dated 2015), this text covers AC50 for 19 molecules.

Each structure is given as a SMILES string.

Sequence of PKM2 (P14618 whole entry): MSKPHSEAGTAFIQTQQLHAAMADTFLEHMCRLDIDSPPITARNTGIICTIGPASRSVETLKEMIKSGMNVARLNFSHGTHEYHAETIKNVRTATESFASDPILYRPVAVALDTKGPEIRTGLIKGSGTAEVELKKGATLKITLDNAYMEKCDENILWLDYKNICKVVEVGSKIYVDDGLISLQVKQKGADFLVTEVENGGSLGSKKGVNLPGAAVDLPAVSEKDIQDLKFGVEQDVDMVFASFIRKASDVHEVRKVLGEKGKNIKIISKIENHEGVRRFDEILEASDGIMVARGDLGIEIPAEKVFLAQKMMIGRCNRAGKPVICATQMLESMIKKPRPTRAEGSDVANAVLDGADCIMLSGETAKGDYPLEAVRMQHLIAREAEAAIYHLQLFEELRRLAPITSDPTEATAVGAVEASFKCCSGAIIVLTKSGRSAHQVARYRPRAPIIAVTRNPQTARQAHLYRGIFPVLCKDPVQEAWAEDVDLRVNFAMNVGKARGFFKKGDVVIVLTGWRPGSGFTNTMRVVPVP

For this test, the target named is PKM2 (Homo sapiens, UniProt P14618). As to the kind of experiment: PKM2 Assay (activation, LDH-coupled NADH absorbance at 340 nm). It is filed as biochemical. Conditions: activation of PKM2; PKM2 50 ng/well, ADP 0.7 mM, PEP 0.15 mM, room temperature (25° C.); read-out: AC50. How it is done:
• PKM2 stock enzyme solution was diluted in Reaction Buffer • 2 μL of compound was added into each well first, and then 180 μL of the Reaction Mix was added. • Reaction mixture with compound (without ADP) were incubated for 30 minutes at 4° C. • Plates were re-equilibrated to room temperature prior to adding 20 μL ADP to initiate the reaction. • Reaction progress was measured as changes in absorbance at 340 nm wavelength at room temperature (25° C.) Reaction Mix: PKM2 (50 ng/well), ADP (0.7 mM), PEP (0.15 mM), NADH (180 μM), LDH (2 units) in Reaction Buffer Reaction Buffer: 100 mM KCl, 50 mM Tris pH 7.5, 5 mM MgCl2, 1 mM DTT, 0.03% BSA.
Certain compounds of Formula I were tested in the above-described assay. A compound described herein may be tested for its ability to activate PKM2. The activation activity of these compounds is represented as an AC50 in Table 2 and throughout the application. […] “B” refers to an activator of PKM2 with an EC50 between 100 nM and 1 μM. “C” refers to an activator of PKM2 with an EC50 between 1 μM and 10 μM. “D” refers to an activator of PKM2 with an EC50 greater than 10 μM. “NA” refers to data that is not available.
For the molecule `O=C(c1ccc(NS(=O)(=O)c2cccc3cccnc23)cc1)N1CC(O)C1` [Compound 141], the AC50 was above 10 µM.

Regarding `O=C(c1ccc(NS(=O)(=O)c2cccc3cccnc23)cc1)N1CC(O)(c2ccccc2)C1` [Compound 136], the AC50 lay within 0.1 to 1 µM.

As to `COc1ccccc1OC1CN(C(=O)c2ccc(NS(=O)(=O)c3cccc4cccnc34)c(C)c2)C1` [Compound 159], the AC50 was below 0.1 µM.

For `COc1cc(NS(=O)(=O)c2cccc3cccnc23)ccc1C(=O)N1CC(OC(=O)Nc2ccccn2)C1` [Compound 157, 1-(2-Methoxy-4-(quinoline-8-sulfonamido)benzoyl)azetidin-3-yl pyridin-2-ylcarbamate], the AC50 was in the range of 0.1 to 1 µM.

For the molecule `CC1(O)CN(C(=O)c2ccc(NS(=O)(=O)c3cccc4cccnc34)c(F)c2)C1` [Compound 125], the AC50 is above 10 µM.

Consider `CC(C)NC(=O)NC1CN(C(=O)c2ccc(NS(=O)(=O)c3cccc4cccnc34)cc2)C1` [Compound 163], for which the AC50 lay within 1 to 10 µM.

For the molecule `CC(C)NC(=O)OC1CN(C(=O)c2ccc(NS(=O)(=O)c3cccc4cccnc34)c(F)c2)C1` [Compound 134, 1-(3-Fluoro-4-(quinoline-8-sulfonamido)benzoyl)azetidin-3-yl isopropylcarbamate], the concentration at half-maximal activity (AC50) is 1 to 10 µM.

For the molecule `O=C(OC1CN(C(=O)c2ccc(NS(=O)(=O)c3cccc4cccnc34)c(F)c2)C1)c1ccccn1` [Compound 124, 1-(3-Fluoro-4-(quinoline-8-sulfonamido)benzoyl)azetidin-3-yl picolinate], the AC50 is 1 to 10 µM.

With `COc1ncccc1NC1CN(C(=O)c2ccc(NS(=O)(=O)c3cccc4cccnc34)c(C)c2)C1` [Compound 148], the AC50 fell in the range of 0.1 to 1 µM.

As to `COc1cc(C(=O)N2CC(Oc3ccccc3OC)C2)ccc1NS(=O)(=O)c1cccc2cccnc12` [Compound 158], the AC50 is below 0.1 µM.

Turning to `O=C(c1ccc(NS(=O)(=O)c2cccc3cccnc23)cc1)N1CC(Oc2ccccc2)C1` [Compound 100], the AC50 fell in the range of 0.1 to 1 µM.

For `COc1ccncc1NC1CN(C(=O)c2ccc(NS(=O)(=O)c3cccc4cccnc34)c(C)c2)C1` [Compound 153], the AC50 lay in the range of 0.1 to 1 µM.

In the case of `COc1cccnc1NC1CN(C(=O)c2ccc(NS(=O)(=O)c3cccc4cccnc34)c(C)c2)C1` [Compound 149], the AC50 was below 0.1 µM.

As for `C=CCNC(=O)NC1CN(C(=O)c2ccc(NS(=O)(=O)c3cccc4cccnc34)c(OC)c2)C1` [Compound 140, N-(4-(3-(3-Allylureido)azetidine-1-carbonyl)-2-methoxyphenyl)quinoline-8-sulfonamide], the AC50 is 1 to 10 µM.

As to `Cc1cc(C(=O)N2CC(N(C)Cc3ccccc3)C2)ccc1NS(=O)(=O)c1cccc2cccnc12` [Compound 109, N-(4-(3-(benzyl(methyl)amino)azetidine-1-carbonyl)-2-methylphenyl)quinoline-8-sulfonamide], the AC50 was 0.1 to 1 µM.

On to `COc1cc(NS(=O)(=O)c2cccc3cccnc23)ccc1C(=O)N1CC(OC(=O)NC(C)C)C1` [Compound 133, 1-(2-Methoxy-4-(quinoline-8-sulfonamido)benzoyl)azetidin-3-yl isopropylcarbamate], for which the AC50 was in the range of 0.1 to 1 µM.

Regarding `Cc1cc(C(=O)N2CC(OC(=O)NC(C)C)C2)ccc1NS(=O)(=O)c1cccc2cccnc12` [Compound 132, 1-(3-Methyl-4-(quinoline-8-sulfonamido)benzoyl)azetidin-3-yl isopropylcarbamate], the AC50 was in the range of 0.1 to 1 µM.

`Cc1cc(C(=O)N2CC(Oc3ccccc3)C2)ccc1NS(=O)(=O)c1cccc2cccnc12` [Compound 106]: the AC50 was below 0.1 µM.

For `Cc1cc(C(=O)N2CC(O)C2)ccc1NS(=O)(=O)c1cccc2cccnc12` [Compound 142], the AC50 fell in the range of 1 to 10 µM.

The term AC50 denotes the concentration at which the activity in the assay is half-maximal.
